Where two headings read alike, the source gives them in different places.
How the values were obtained:
C2C12 myotubes = conditions: for Viability (composite Z-score): normalized score vs mock-treated (DMSO) wells
reactive oxygen species = type: cell-based, mouse; conditions: for ROS (composite Z-score): normalized score vs mock-treated (DMSO) wells
[1] = test system: mitochondrial membrane potential; type: cell-based, mouse; conditions: for ΔΨm (composite Z-score): normalized score vs mock-treated (DMSO) wells
[2] = test system: cellular dehydrogenase activity; conditions: for MTT (composite Z-score): normalized score vs mock-treated (DMSO) wells
OXPHOS gene expression = type: cell-based, mouse; conditions: for GE-HTS (composite Z-score): normalized score vs mock-treated (DMSO) wells
cytochrome c = type: cell-based, mouse; conditions: for cyt c (composite Z-score): normalized score vs mock-treated (DMSO) wells
mtOXPHOS transcripts = type: cell-based, mouse; conditions: for mitoOX (composite Z-score): normalized score vs mock-treated (DMSO) wells
nuOXPHOS transcripts = type: cell-based, mouse; conditions: for nucOX (composite Z-score): normalized score vs mock-treated (DMSO) wells
[3] = composite Z-score vs DMSO wells, Conc 20 μM
[4] = normalized composite Z-score vs mock-treated (DMSO) wells, Conc 20 μM
[5] = 20 μM, composite Z-score vs DMSO
[6] = composite Z-score vs DMSO, Conc 20 μM
[7] = 27.18 μM, composite Z-score vs DMSO
[8] = composite Z-score vs mock-treated (DMSO) wells, Conc 20 μM

SMILES: Oc1cc(O)c2c(c1)O[C@H](c1ccc(O)c(O)c1)[C@@H](O)C2 [cianidanol, reference compound]
- Viability (C2C12 myotubes; [3]): 0.630
- ROS (reactive oxygen species; [3]): −0.371
- ΔΨm [1, 3]: −1.746
- MTT [2, 3]: −1.471
- GE-HTS (OXPHOS gene expression; [3]): −0.113
- cyt c (cytochrome c; [3]): 0.639
- mitoOX (mtOXPHOS transcripts; [3]): 0.347
- nucOX (nuOXPHOS transcripts; [3]): −0.357

SMILES: COC(=O)C[C@H]1C(C)(C)C2(O)OC34CC2C(=O)[C@]1(C)C3CC[C@]1(C)C4=CC(=O)O[C@H]1c1ccoc1 (stereo partly drawn) [8beta-hydroxycarapin, 3,8-hemiacetal]
- Viability (composite Z-score) (C2C12 myotubes; Conc 20 μM): 0.561
- ROS (composite Z-score) (reactive oxygen species; Conc 20 μM): 1.075
- ΔΨm (composite Z-score) ([1]; Conc 20 μM): −0.251
- MTT (composite Z-score) ([2]; Conc 20 μM): 0.204
- GE-HTS (composite Z-score) (OXPHOS gene expression; Conc 20 μM): 0.600
- cyt c (composite Z-score) (cytochrome c; Conc 20 μM): 0.436
- mitoOX (composite Z-score) (mtOXPHOS transcripts; Conc 20 μM): 0.789
- nucOX (composite Z-score) (nuOXPHOS transcripts; Conc 20 μM): 0.472

SMILES: COc1c(-c2ccccc2)oc2c(OC)cccc2c1=O [3,8-dimethoxyflavone]
- Viability (C2C12 myotubes; [4]): 0.930
- ROS (reactive oxygen species; [4]): 1.553
- ΔΨm [1, 4]: −0.103
- MTT [2, 4]: −0.252
- GE-HTS (OXPHOS gene expression; [4]): 0.399
- cyt c (cytochrome c; [4]): 0.361
- mitoOX (mtOXPHOS transcripts; [4]): 0.492
- nucOX (nuOXPHOS transcripts; [4]): 0.315

SMILES: C[C@H](CCC(=O)O)[C@H]1CC[C@H]2[C@@H]3CCC4CCCC[C@]4(C)[C@H]3C=C[C@]12C (stereo partly shown) [chol-11-enic acid]
- Viability (C2C12 myotubes; [4]): −0.456
- ROS (reactive oxygen species; [4]): 0.737
- ΔΨm [1, 4]: −0.652
- MTT [2, 4]: −1.164
- GE-HTS (OXPHOS gene expression; [4]): −0.069
- cyt c (cytochrome c; [4]): 0.383
- mitoOX (mtOXPHOS transcripts; [4]): 0.246
- nucOX (nuOXPHOS transcripts; [4]): −0.195

SMILES: CCCCC(CC)CNC(=N)NC(=N)NCCCCCCNC(=N)NC(=N)NCC(CC)CCCC (stereo not shown) [alexidine]
- Viability (C2C12 myotubes): −4.805
- Viability (C2C12 myotubes; [5]): −2.974
- ROS (reactive oxygen species): −4.270
- ROS (reactive oxygen species; [5]): −0.298
- ΔΨm [1]: −3.726
- ΔΨm [1, 5]: −1.139
- MTT [2]: −5.432
- MTT [2, 5]: −2.693
- GE-HTS (OXPHOS gene expression): −1.696
- GE-HTS (OXPHOS gene expression; [5]): −0.288
- cyt c (cytochrome c): −3.201
- cyt c (cytochrome c; [5]): −3.981
- mitoOX (mtOXPHOS transcripts): −2.011
- mitoOX (mtOXPHOS transcripts; [5]): −0.150
- nucOX (nuOXPHOS transcripts): −1.387
- nucOX (nuOXPHOS transcripts; [5]): −0.289

SMILES: CCOc1ccc(NC(C)=O)cc1 [phenacetin]
- Viability (C2C12 myotubes; [3]): 0.665
- ROS (reactive oxygen species; [3]): 1.491
- ΔΨm [1, 3]: −0.255
- MTT [2, 3]: 0.760
- GE-HTS (OXPHOS gene expression; [3]): 0.811
- cyt c (cytochrome c): −0.611
- cyt c (cytochrome c; [3]): 0.005
- mitoOX (mtOXPHOS transcripts; [3]): 0.564
- nucOX (nuOXPHOS transcripts; [3]): 0.833

SMILES: COc1cc2c(cc1OC)[C@@H]1C(=O)c3ccc4c(c3O[C@@H]1CO2)CC(C(C)C)O4 (stereo partly shown) [dihydrorotenone, reference compound]
- Viability (C2C12 myotubes; [6]): 0.390
- ROS (reactive oxygen species; [6]): −0.682
- ΔΨm [1, 6]: −0.314
- MTT [2, 6]: −4.020
- GE-HTS (OXPHOS gene expression; [6]): −2.179
- cyt c (cytochrome c; [6]): −3.153
- mitoOX (mtOXPHOS transcripts; [6]): −1.732
- nucOX (nuOXPHOS transcripts; [6]): −2.212

SMILES: CCCC(=O)Nc1ccc(OCC(O)CNC(C)C)c(C(C)=O)c1 (stereo not shown) [acebutolol]
- Viability (C2C12 myotubes; [3]): −0.271
- ROS (reactive oxygen species; [3]): 1.061
- ΔΨm [1, 3]: 0.016
- MTT [2, 3]: −0.548
- GE-HTS (OXPHOS gene expression; [3]): −0.511
- cyt c (cytochrome c): −0.884
- cyt c (cytochrome c; [3]): 0.214
- mitoOX (mtOXPHOS transcripts; [3]): −0.254
- nucOX (nuOXPHOS transcripts; [3]): −0.591

SMILES: CC[C@@]1(O)C[C@H](O)c2c(cc3c(c2O)C(=O)c2c(O)ccc(O)c2C3=O)[C@H]1C(=O)OC [rutilantinone]
- Viability (C2C12 myotubes; [6]): 0.192
- ROS (reactive oxygen species; [6]): 2.445
- ΔΨm [1, 6]: −3.758
- MTT [2, 6]: −2.979
- GE-HTS (OXPHOS gene expression; [6]): −1.917
- cyt c (cytochrome c; [6]): 0.372
- mitoOX (mtOXPHOS transcripts; [6]): −3.039
- nucOX (nuOXPHOS transcripts; [6]): −1.152

SMILES: C[C@@H]1C(=O)O[C@H]2C[C@@]34[C@H]5C[C@@H](C(C)(C)C)[C@]36[C@@H](OC(=O)[C@@H]6O)O[C@@]4(C(=O)O5)[C@]21O [ginkgolide A]
- Viability (C2C12 myotubes; [4]): 0.380
- ROS (reactive oxygen species; [4]): 1.848
- ΔΨm [1, 4]: −0.271
- MTT [2, 4]: −1.019
- GE-HTS (OXPHOS gene expression; [4]): −0.247
- cyt c (cytochrome c; [4]): 0.541
- mitoOX (mtOXPHOS transcripts; [4]): −0.123
- nucOX (nuOXPHOS transcripts; [4]): −0.286

SMILES: Oc1ccc2c(c1)O[C@H](c1ccc(O)c(O)c1)[C@@H](O)C2 [fisetinidol, reference compound]
- Viability (composite Z-score) (C2C12 myotubes; Conc 20 μM): −1.412
- ROS (composite Z-score) (reactive oxygen species; Conc 20 μM): −0.215
- ΔΨm (composite Z-score) ([1]; Conc 20 μM): −1.528
- MTT (composite Z-score) ([2]; Conc 20 μM): −1.804
- GE-HTS (composite Z-score) (OXPHOS gene expression; Conc 20 μM): −0.998
- cyt c (composite Z-score) (cytochrome c; Conc 20 μM): 0.234
- mitoOX (composite Z-score) (mtOXPHOS transcripts; Conc 20 μM): −0.536
- nucOX (composite Z-score) (nuOXPHOS transcripts; Conc 20 μM): −1.107

SMILES: Cc1noc(NS(=O)(=O)c2ccc(N)cc2)c1C [sulfisoxazole]
- Viability (C2C12 myotubes; [3]): −1.895
- ROS (reactive oxygen species; [3]): −0.095
- ΔΨm [1, 3]: −0.543
- MTT [2, 3]: −0.835
- GE-HTS (OXPHOS gene expression; [3]): 0.103
- cyt c (cytochrome c): 0.001
- cyt c (cytochrome c; [3]): 0.649
- mitoOX (mtOXPHOS transcripts; [3]): −0.187
- nucOX (nuOXPHOS transcripts; [3]): 0.239

SMILES: C[C@]12C=CC(=O)C=C1CC[C@@H]1[C@@H]2CC[C@]2(C)C(=O)CC[C@@H]12 [androsta-1,4-dien-3,17-dione]
- Viability (C2C12 myotubes; [6]): 0.162
- ROS (reactive oxygen species; [6]): 0.068
- ΔΨm [1, 6]: 0.152
- MTT [2, 6]: −0.500
- GE-HTS (OXPHOS gene expression; [6]): −0.180
- cyt c (cytochrome c; [6]): 0.261
- mitoOX (mtOXPHOS transcripts; [6]): −0.189
- nucOX (nuOXPHOS transcripts; [6]): −0.143

SMILES: C[C@H](N)CO [I-alaninol]
- Viability (C2C12 myotubes; [6]): −0.353
- ROS (reactive oxygen species; [6]): 0.242
- ΔΨm [1, 6]: −0.428
- MTT [2, 6]: −0.342
- GE-HTS (OXPHOS gene expression; [6]): −0.652
- cyt c (cytochrome c; [6]): 0.301
- mitoOX (mtOXPHOS transcripts; [6]): −0.738
- nucOX (nuOXPHOS transcripts; [6]): −0.555

SMILES: C[N+](C)(C)CCOC(N)=O [carbachol]
- Viability (C2C12 myotubes; [5]): −0.502
- Viability (C2C12 myotubes; [7]): −0.239
- ROS (reactive oxygen species; [5]): 1.304
- ROS (reactive oxygen species; [7]): 1.223
- ΔΨm [1, 5]: −0.965
- ΔΨm [1, 7]: −0.296
- MTT [2, 5]: −1.002
- MTT [2, 7]: 0.905
- GE-HTS (OXPHOS gene expression; [5]): 0.355
- GE-HTS (OXPHOS gene expression; [7]): −0.060
- cyt c (cytochrome c; [5]): −0.154
- cyt c (cytochrome c; [7]): −0.202
- mitoOX (mtOXPHOS transcripts; [5]): 0.391
- mitoOX (mtOXPHOS transcripts; [7]): 0.191
- nucOX (nuOXPHOS transcripts; [5]): 0.273
- nucOX (nuOXPHOS transcripts; [7]): −0.176

SMILES: COc1cc2c(cc1OC)[C@@H]1C(=O)c3ccc(O)c(CC=C(C)C)c3O[C@@H]1CO2 [rotenonic acid, reference compound]
- Viability (C2C12 myotubes; [8]): 0.206
- ROS (reactive oxygen species; [8]): 0.173
- ΔΨm [1, 8]: 0.050
- MTT [2, 8]: −0.731
- GE-HTS (OXPHOS gene expression; [8]): −0.064
- cyt c (cytochrome c; [8]): 0.365
- mitoOX (mtOXPHOS transcripts; [8]): −0.108
- nucOX (nuOXPHOS transcripts; [8]): −0.010

SMILES: Oc1ccc([C@H]2Oc3cc(O)cc(O)c3C[C@H]2O)cc1 [(2R,3R)-(−)-epiafzelechin]
- Viability (C2C12 myotubes; [6]): −0.719
- ROS (reactive oxygen species; [6]): 1.019
- ΔΨm [1, 6]: −3.118
- MTT [2, 6]: −0.486
- GE-HTS (OXPHOS gene expression; [6]): −0.497
- cyt c (cytochrome c; [6]): 0.166
- mitoOX (mtOXPHOS transcripts; [6]): −0.225
- nucOX (nuOXPHOS transcripts; [6]): −0.559

SMILES: C=C(C)[C@@H]1CC[C@]2(C(=O)O)CC[C@]3(C)[C@H](CC[C@@H]4[C@@]5(C)CC[C@H](O)C(C)(C)[C@@H]5CC[C@]43C)[C@@H]12 [betulinic acid]
- Viability (C2C12 myotubes; [6]): 0.850
- ROS (reactive oxygen species; [6]): 0.202
- ΔΨm [1, 6]: −1.220
- MTT [2, 6]: −2.381
- GE-HTS (OXPHOS gene expression; [6]): 0.145
- cyt c (cytochrome c; [6]): 0.481
- mitoOX (mtOXPHOS transcripts; [6]): 0.259
- nucOX (nuOXPHOS transcripts; [6]): 0.069

Reference: patent US20090143279A1 (priority 2007, published 2009)
